Data from ChEMBL document CHEMBL1201862, “PubChem BioAssay data set” (2004).
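48-hour exposure; five concentrations; linearly interpolated endpoints. Here, GI50 denotes the concentration required for 50% inhibition of growth.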 Active and inactive are the calls of the source. No stated cut-off is given here; in the data, active = GI50 up to about 1.1 µM and inactive = higher.

Legend:
Experiment in all cases: NCI anticancer screen, dose series, 48 h
OVCAR-5 = tested on: OVCAR-5
SK-OV-3 = tested on: SK-OV-3
T47D = tested on: T47D
IGROV-1 = tested on: IGROV-1
SW-620 = tested on: SW-620
SNB-75 = tested on: SNB-75
K562 = tested on: K562
RXF 393 = tested on: RXF 393
SK-MEL-28 = tested on: SK-MEL-28
U-251 = tested on: U-251
OVCAR-3 = tested on: OVCAR-3
SF-268 = tested on: SF-268
MDA-N = tested on: MDA-N
A498 = tested on: A498
Malme-3M = tested on: Malme-3M
ACHN = tested on: ACHN
EKVX = tested on: EKVX
SK-MEL-2 = tested on: SK-MEL-2
HL-60 = tested on: HL-60
KM12 = tested on: KM12
HT-29 = tested on: HT-29
CCRF-CEM = tested on: CCRF-CEM
SK-MEL-5 = tested on: SK-MEL-5
NCI-H522 = tested on: NCI-H522
UACC-257 = tested on: UACC-257
TK-10 = tested on: TK-10
DU-145 = tested on: DU-145
HCT-15 = tested on: HCT-15
MOLT-4 = tested on: MOLT-4
NCI/ADR-RES = tested on: NCI/ADR-RES
NCI-H23 = tested on: NCI-H23
MCF7 = tested on: MCF7
MDA-MB-435 = tested on: MDA-MB-435
SF-295 = tested on: SF-295
Hs-578T = tested on: Hs-578T
OVCAR-4 = tested on: OVCAR-4
CAKI-1 = tested on: CAKI-1
MDA-MB-231 = tested on: MDA-MB-231
NCI-H460 = tested on: NCI-H460
SF-539 = tested on: SF-539
NCI-H226 = tested on: NCI-H226
M14 = tested on: M14
786-0 = tested on: 786-0
A549 = tested on: A549
SNB-19 = tested on: SNB-19
HOP-92 = tested on: HOP-92
SN12C = tested on: SN12C
OVCAR-8 = tested on: OVCAR-8
UACC-62 = tested on: UACC-62
COLO 205 = tested on: COLO 205
PC-3 = tested on: PC-3
LOX IMVI = tested on: LOX IMVI
HCC 2998 = tested on: HCC 2998
HOP-62 = tested on: HOP-62
RPMI-8226 = tested on: RPMI-8226
SR = tested on: SR
HCT-116 = tested on: HCT-116
UO-31 = tested on: UO-31

For `CSC(=S)Nc1cccc(C)n1`, the GI50 (OVCAR-5) was > 100 µM (inactive), the GI50 (SK-OV-3) was > 100 µM (inactive) and the GI50 (T47D) was > 100 µM (inactive). The GI50 (IGROV-1) was > 100 µM (inactive), the GI50 (SW-620) was > 100 µM (inactive) and the GI50 (SNB-75) was > 100 µM (inactive). For the same molecule, the GI50 (K562) was > 100 µM (inactive), the GI50 (RXF 393) was > 100 µM (inactive) and the GI50 (SK-MEL-28) was > 100 µM (inactive). The GI50 (U-251) was > 100 µM (inactive), the GI50 (OVCAR-3) was 52.4 µM (inactive) and the GI50 (SF-268) was > 100 µM (inactive). The GI50 (MDA-N) was > 100 µM (inactive), the GI50 (A498) was > 100 µM (inactive) and the GI50 (Malme-3M) was > 100 µM (inactive). The GI50 (ACHN) was > 100 µM (inactive), the GI50 (EKVX) was > 100 µM (inactive) and the GI50 (SK-MEL-2) was > 100 µM (inactive). For the same molecule, the GI50 (HL-60) was > 100 µM (inactive), the GI50 (KM12) was > 100 µM (inactive) and the GI50 (HT-29) was > 100 µM (inactive). The GI50 (CCRF-CEM) was > 100 µM (inactive), the GI50 (SK-MEL-5) was 76.6 µM (inactive) and the GI50 (NCI-H522) was > 100 µM (inactive). For the same molecule, the GI50 (UACC-257) was > 100 µM (inactive), the GI50 (TK-10) was > 100 µM (inactive) and the GI50 (DU-145) was > 100 µM (inactive). The GI50 (HCT-15) was greater than 100 µM, the GI50 (MOLT-4) was > 100 µM (inactive) and the GI50 (NCI/ADR-RES) was > 100 µM (inactive). The GI50 (NCI-H23) was > 100 µM (inactive), the GI50 (MCF7) was > 100 µM (inactive) and the GI50 (MDA-MB-435) was > 100 µM (inactive). For the same molecule, the GI50 (SF-295) was > 100 µM (inactive), the GI50 (Hs-578T) was > 100 µM (inactive) and the GI50 (OVCAR-4) was > 100 µM (inactive). The GI50 (CAKI-1) was > 100 µM (inactive), the GI50 (MDA-MB-231) was > 100 µM (inactive) and the GI50 (NCI-H460) was > 100 µM (inactive). For the same molecule, the GI50 (SF-539) was > 100 µM (inactive), the GI50 (NCI-H226) was > 100 µM (inactive) and the GI50 (M14) was > 100 µM (inactive). The GI50 (786-0) was > 100 µM (inactive), the GI50 (A549) was > 100 µM (inactive) and the GI50 (SNB-19) was > 100 µM (inactive). The GI50 (HOP-92) was > 100 µM (inactive), the GI50 (SN12C) was > 100 µM (inactive) and the GI50 (OVCAR-8) was > 100 µM (inactive). For the same molecule, the GI50 (UACC-62) was > 100 µM (inactive), the GI50 (COLO 205) was > 100 µM (inactive) and the GI50 (PC-3) was > 100 µM (inactive). For the same molecule, the GI50 (LOX IMVI) was > 100 µM (inactive), the GI50 (HCC 2998) was > 100 µM (inactive) and the GI50 (HOP-62) was > 100 µM (inactive). The GI50 (RPMI-8226) was > 100 µM (inactive), the GI50 (SR) was > 100 µM (inactive) and the GI50 (HCT-116) was > 100 µM (inactive). The GI50 (UO-31) was > 100 µM (inactive).
